Experimental data reported in patent US11535599B2, “Benzisoxazole derivative” (Sumitomo Pharma Co., Ltd., priority 2020, dated 2022).

How the values were obtained:
cerebellar Purkinje cell = assay: Effect for inhibiting neuronal firing in mouse brain slice (patch-clamp); type: cell-based; conditions: 500 μmol/L
Protocol: (§1) The action of the present compound for regulating the voluntary firing frequency in subthalamic nucleus neuron and cerebellar Purkinje cell was measured by patch-clamp method in mouse brain slice. […] As stimulus protocol, a current of +200 pA or +400 pA was added thereto for 400 milliseconds and the raised action potential was recorded. […] The stimulus-controlled and digitized action potential was recorded with Clampex software (Version 10.2) (all instruments are from Molecular Device Corporation, Union City, Calif., USA). […] In the measurement after adding the compound of Example 13, the action potential was recorded after the record solution containing the compound of Example 13 was perfused for more than 10 minutes. In the analyses, the percentage of the spike firing frequency (Hz) for the current stimulation after adding the compound of Example 13, per the spike firing frequency (Hz) for the current stimulation before adding the compound of Example 13, was calculated, which was defined as a change rate of spike firing frequency in each cell.

[1] = tested on: subthalamic nucleus neuron; assay: as above; type: cell-based; conditions: 500 μmol/L
Protocol: as §1

## C[C@H](c1noc2ccccc12)S(N)(=O)=O [Example 13, (1R)-1-(1,2-benzoxazol-3-yl)ethane-1-sulfonamide]
Cerebellar Purkinje cell
  spike firing frequency in cerebellar Purkinje cell: significantly inhibited the spike firing frequency
[1]
  spike firing frequency in subthalamic nucleus neuron: significantly inhibited the spike firing frequency
